Laboratory results published in patent US12486253B2, “Therapeutics for the degradation of mutant BRAF” (C4 THERAPEUTICS, INC., priority 2021, dated 2025).

Biological target: BRAF V600E (Homo sapiens, UniProt P15056, V600E)
Assay: HiBiT cellular BRAF^V600E degradation assay
Type: cell-based
Settings: A375.10 cells, 24 h; for DC50: concentration at which 50% of total cellular BRAF^V600E is degraded; for Emax: residual protein remaining in the cell, read-out: HiBit 24 h Emax

BRAF V600E, sequence (P15056 whole entry V600E): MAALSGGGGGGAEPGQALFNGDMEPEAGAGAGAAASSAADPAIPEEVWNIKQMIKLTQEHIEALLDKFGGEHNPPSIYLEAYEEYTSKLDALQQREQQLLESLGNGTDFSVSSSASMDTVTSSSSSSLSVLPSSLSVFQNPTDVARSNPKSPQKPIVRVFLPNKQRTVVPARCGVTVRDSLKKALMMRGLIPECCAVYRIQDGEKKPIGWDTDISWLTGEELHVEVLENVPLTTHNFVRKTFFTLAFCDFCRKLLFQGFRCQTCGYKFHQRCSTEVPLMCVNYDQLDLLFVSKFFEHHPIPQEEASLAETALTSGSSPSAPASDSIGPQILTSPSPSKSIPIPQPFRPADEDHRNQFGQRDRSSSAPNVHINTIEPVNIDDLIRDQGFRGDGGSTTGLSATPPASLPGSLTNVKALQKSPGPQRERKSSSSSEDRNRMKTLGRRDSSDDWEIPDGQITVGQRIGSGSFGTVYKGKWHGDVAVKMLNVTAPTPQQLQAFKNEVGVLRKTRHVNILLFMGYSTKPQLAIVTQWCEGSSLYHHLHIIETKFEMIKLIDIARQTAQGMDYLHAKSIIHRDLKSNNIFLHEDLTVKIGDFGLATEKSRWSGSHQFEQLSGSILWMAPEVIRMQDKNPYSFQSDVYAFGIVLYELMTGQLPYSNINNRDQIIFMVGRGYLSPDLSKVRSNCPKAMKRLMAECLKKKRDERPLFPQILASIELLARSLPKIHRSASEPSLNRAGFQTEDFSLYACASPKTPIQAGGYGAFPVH

DC50 [nM] | Emax [%] | SMILES
6.98 | 18.8 | CCN(C)S(=O)(=O)Nc1ccc(F)c(Oc2ccc3ncn([C@H]4CCC5(CCN(C(=O)CC6(O)CCN(c7cc8c(cc7F)c(N7CCC(=O)NC7=O)nn8C)CC6)CC5)C4)c(=O)c3c2)c1C#N [Example 159, 6-[2-cyano-3-[[ethyl(methyl)sulfamoyl]amino]-6-fluorophenoxy]-3-[(3S)-8-[2-[1-[3-(2,4-dioxo-1,3-diazinan-1-yl)-5-fluoro-1-methylindazol-6-yl]-4-hydroxypiperidin-4-yl]acetyl]-8-azaspiro [4.5]decan-3-yl]-4-oxoquinazoline]
22.2 | 23.9 | CCN(C)S(=O)(=O)Nc1ccc(F)c(Oc2ccc3ncn([C@H]4CCC5(CCN(C(=O)CN6CCC(c7ccc8c(C9CCC(=O)NC9=O)nn(C)c8c7)C(F)(F)C6)CC5)C4)c(=O)c3c2)c1C#N (stereo partly drawn) [Example 160, 6-[2-cyano-3-[[ethyl(methyl)sulfamoyl]amino]-6-fluorophenoxy]-3-[(3S)-8-[2-[4-[3-(2,6-dioxopiperidin-3-yl)-1-methylindazol-6-yl]-3,3-difluoropiperidin-1-yl]acetyl]-8-azaspiro[4.5]decan-3-yl]-4-oxoquinazoline]
17.3 | 14.5 | CCN(C)S(=O)(=O)Nc1ccc(F)c(Oc2ccc3ncn([C@H]4CCC5(CCN(C(=O)CN6CCN(c7cc8c(cc7F)c(N7CCC(=O)NC7=O)nn8C)CC6)CC5)C4)c(=O)c3c2)c1C#N [Example 162, 6-[2-cyano-3-[[ethyl(methyl)sulfamoyl]amino]-6-fluorophenoxy]-3-[(3S)-8-[2-[4-[3-(2,4-dioxo-1,3-diazinan-1-yl)-5-fluoro-1-methylindazol-6-yl]piperazin-1-yl]acetyl]-8-azaspiro [4.5]decan-3-yl]-4-oxoquinazoline]
27.6 | 16.2 | CCN(C)S(=O)(=O)Nc1ccc(F)c(Oc2ccc3ncn(C4CCC5(CC4)CCN(C(=O)CN4CCN(c6cc7c(cc6F)c(N6CCC(=O)NC6=O)nn7C)CC4)CC5)c(=O)c3c2)c1C#N [Example 163, 9-[6-[2-cyano-3-[[ethyl(methyl)sulfamoyl]amino]-6-fluorophenoxy]-4-oxoquinazolin-3-yl]-3-[2-[4-[3-(2,4-dioxo-1,3-diazinan-1-yl)-5-fluoro-1-methylindazol-6-yl]piperazin-1-yl]acetyl]-3-azaspiro[5.5]undecane]
26.6 | 15.6 | CCN(C)S(=O)(=O)Nc1ccc(F)c(Oc2ccc3ncn([C@H]4COC5(CCN(C(=O)CN6CCN(c7cc8c(cc7F)c(N7CCC(=O)NC7=O)nn8C)CC6)CC5)C4)c(=O)c3c2)c1C#N [Example 164, (3R)-3-[6-[2-cyano-3-[[ethyl(methyl)sulfamoyl]amino]-6-fluorophenoxy]-4-oxoquinazolin-3-yl]-8-[2-[4-[3-(2,4-dioxo-1,3-diazinan-1-yl)-5-fluoro-1-methylindazol-6-yl]piperazin-1-yl]acetyl]-1-oxa-8-azaspiro[4.5]decane]
100 | 17.8 | Cn1nc(C2CCC(=O)NC2=O)c2ccc(C3CCN(CC(=O)N4CCC5(CC4)C[C@@H](n4cnc6ccc(Oc7c(F)ccc(NS(=O)(=O)N8CC[C@@H](F)C8)c7C#N)cc6c4=O)CO5)CC3)cc21 (stereo partly drawn) [Example 165, (3R)—N-[2-cyano-3-[3-[(3R)-8-[2-[4-[3-(2,6-dioxopiperidin-3-yl)-1-methylindazol-6-yl]piperidin-1-yl]acetyl]-1-oxa-8-azaspiro[4.5]decan-3-yl]-4-oxoquinazolin-6-yl]oxy-4-fluorophenyl]-3-fluoropyrrolidine-1-sulfonamide]
34.5 | 23.5 | CCN(C)S(=O)(=O)Nc1ccc(F)c(Oc2ccc3ncn([C@H]4CCC5(CCN(C(=O)CN6CCC(c7ccc8c(C9CCC(=O)NC9=O)nn(C)c8c7)CC6)CC5)C4)c(=O)c3c2)c1Cl (stereo partly drawn) [Example 166, 6-[2-chloro-3-[[ethyl(methyl)sulfamoyl]amino]-6-fluorophenoxy]-3-[(3S)-8-[2-[4-[3-(2,6-dioxopiperidin-3-yl)-1-methylindazol-6-yl]piperidin-1-yl]acetyl]-8-azaspiro[4.5]decan-3-yl]-4-oxoquinazoline]

The remaining lines, values behind:

SMILES | DC50 [nM] | Emax [%]
CCN(C)S(=O)(=O)Nc1ccc(F)c(Oc2ccc3ncn(CCCC4CCN(C(=O)CN5CCC(c6ccc7c(C8CCC(=O)NC8=O)nn(C)c7c6)CC5)CC4)c(=O)c3c2)c1C#N (stereo not drawn) [Example 145, 6-[2-cyano-3-[[ethyl(methyl)sulfamoyl]amino]-6-fluorophenoxy]-3-[3-[1-[2-[4-[3-(2,6-dioxopiperidin-3-yl)-1-methylindazol-6-yl]piperidin-1-yl]acetyl]piperidin-4-yl]propyl]-4-oxoquinazoline] | 10.6 | 15
CCN(C)S(=O)(=O)Nc1ccc(F)c(Oc2ccc3ncn(-c4cnn(C5CCN(C(=O)CN6CCC(c7ccc8c(C9CCC(=O)NC9=O)nn(C)c8c7)CC6)CC5)c4)c(=O)c3c2)c1C#N (stereo not drawn) [Example 146, 6-[2-cyano-3-[[ethyl(methyl)sulfamoyl]amino]-6-fluorophenoxy]-3-[1-[1-[2-[4-[3-(2,6-dioxopiperidin-3-yl)-1-methylindazol-6-yl]piperidin-1-yl]acetyl]piperidin-4-yl]pyrazol-4-yl]-4-oxoquinazoline] | 22.2 | 16
CCN(C)S(=O)(=O)Nc1ccc(F)c(Oc2ccc3ncn(C4CC5(CCN(C(=O)CN6CCC(c7ccc8c(N9CCC(=O)NC9=O)nn(C)c8c7)CC6)CC5)C4)c(=O)c3c2)c1C#N [Example 147, 6-[2-cyano-3-[[ethyl(methyl)sulfamoyl]amino]-6-fluorophenoxy]-3-[7-[2-[4-[3-(2,4-dioxo-1,3-diazinan-1-yl)-1-methylindazol-6-yl]piperidin-1-yl]acetyl]-7-azaspiro[3.5]nonan-2-yl]-4-oxoquinazoline] | 26.9 | 9.49
CCN(C)S(=O)(=O)Nc1ccc(F)c(Oc2ccc3ncn(C4COC5(CCN(C(=O)CN6CCC(c7ccc8c(N9CCC(=O)NC9=O)nn(C)c8c7)CC6)CC5)C4)c(=O)c3c2)c1C#N (stereo not drawn) [Example 148, 3-[6-[2-cyano-3-[[ethyl(methyl)sulfamoyl]amino]-6-fluorophenoxy]-4-oxoquinazolin-3-yl]-8-[2-[4-[3-(2,4-dioxo-1,3-diazinan-1-yl)-1-methylindazol-6-yl]piperidin-1-yl]acetyl]-1-oxa-8-azaspiro[4.5]decane] | 18.4 | 8.7
CCN(C)S(=O)(=O)Nc1ccc(F)c(Oc2ccc3ncn(C4CC5(CCN(C(=O)CN6CCC(c7ccc8c(C9CCC(=O)NC9=O)nn(C)c8c7)CC6)CC5)C4)c(=O)c3c2)c1C#N (stereo not drawn) [Example 149, 6-[2-cyano-3-[[ethyl(methyl)sulfamoyl]amino]-6-fluorophenoxy]-3-[7-[2-[4-[3-(2,6-dioxopiperidin-3-yl)-1-methylindazol-6-yl]piperidin-1-yl]acetyl]-7-azaspiro[3.5]nonan-2-yl]-4-oxoquinazoline] | 10.7 | 11.5
CCN(C)S(=O)(=O)Nc1ccc(F)c(Oc2ccc3ncn([C@H]4COC5(CCN(C(=O)CC6CCN(c7ccc8c(C9CCC(=O)NC9=O)nn(C)c8c7)CC6)CC5)C4)c(=O)c3c2)c1C#N (stereo partly drawn) [Example 151, (3R)-3-[6-[2-cyano-3-[[ethyl(methyl)sulfamoyl]amino]-6-fluorophenoxy]-4-oxoquinazolin-3-yl]-8-[2-[1-[3-(2,6-dioxopiperidin-3-yl)-1-methylindazol-6-yl]piperidin-4-yl]acetyl]-1-oxa-8-azaspiro[4.5]decane] | 18.7 | 24.6
CCN(C)S(=O)(=O)Nc1ccc(F)c(Oc2ccc3ncn([C@H]4COC5(CCN(C(=O)CC6(O)CCN(c7ccc8c(C9CCC(=O)NC9=O)nn(C)c8c7)CC6)CC5)C4)c(=O)c3c2)c1C#N (stereo partly drawn) [Example 152, (3R)-3-[6-[2-cyano-3-[[ethyl(methyl)sulfamoyl]amino]-6-fluorophenoxy]-4-oxoquinazolin-3-yl]-8-[2-[1-[3-(2,6-dioxopiperidin-3-yl)-1-methylindazol-6-yl]-4-hydroxypiperidin-4-yl]acetyl]-1-oxa-8-azaspiro[4.5]decane] | 27.2 | 25.2
CCN(C)S(=O)(=O)Nc1ccc(F)c(Oc2ccc3ncn([C@H]4CCC5(CCN(C(=O)CN6CCC(c7ccc8c(N9CCC(=O)NC9=O)nn(C)c8c7)CC6)CC5)C4)c(=O)c3c2)c1C#N [Example 154, 6-[2-cyano-3-[[ethyl(methyl)sulfamoyl]amino]-6-fluorophenoxy]-3-[(3S)-8-[2-[4-[3-(2,4-dioxo-1,3-diazinan-1-yl)-1-methylindazol-6-yl]piperidin-1-yl]acetyl]-8-azaspiro[4.5]decan-3-yl]-4-oxoquinazoline] | 24.6 | 11.1
CCN(C)S(=O)(=O)Nc1ccc(F)c(Oc2ccc3ncn(C4CCC5(CC4)CCN(C(=O)CN4CCC(c6ccc7c(N8CCC(=O)NC8=O)nn(C)c7c6)CC4)CC5)c(=O)c3c2)c1C#N [Example 155, 9-[6-[2-cyano-3-[[ethyl(methyl)sulfamoyl]amino]-6-fluorophenoxy]-4-oxoquinazolin-3-yl]-3-[2-[4-[3-(2,4-dioxo-1,3-diazinan-1-yl)-1-methylindazol-6-yl]piperidin-1-yl]acetyl]-3-azaspiro[5.5]undecane] | 23.2 | 9.75
CCN(C)S(=O)(=O)Nc1ccc(F)c(Oc2ccc3ncn(C4CCC5(CC4)CCN(C(=O)CN4CCC(c6ccc7c(C8CCC(=O)NC8=O)nn(C)c7c6)CC4)CC5)c(=O)c3c2)c1C#N (stereo not drawn) [Example 156, 9-[6-[2-cyano-3-[[ethyl(methyl)sulfamoyl]amino]-6-fluorophenoxy]-4-oxoquinazolin-3-yl]-3-[2-[4-[3-(2,6-dioxopiperidin-3-yl)-1-methylindazol-6-yl]piperidin-1-yl]acetyl]-3-azaspiro[5.5]undecane] | 26.6 | 21
CCN(C)S(=O)(=O)Nc1ccc(F)c(Oc2ccc3ncn(C4CCC5(CC4)CCN(C(=O)CC4(O)CCN(c6cc7c(cc6F)c(N6CCC(=O)NC6=O)nn7C)CC4)CC5)c(=O)c3c2)c1C#N [Example 158, 9-[6-[2-cyano-3-[[ethyl(methyl)sulfamoyl]amino]-6-fluorophenoxy]-4-oxoquinazolin-3-yl]-3-[2-[1-[3-(2,4-dioxo-1,3-diazinan-1-yl)-5-fluoro-1-methylindazol-6-yl]-4-hydroxypiperidin-4-yl]acetyl]-3-azaspiro[5.5]undecane] | 25 | 30
